Measured values published in ChEMBL document CHEMBL1201862, “PubChem BioAssay data set” (2004).
The source made the active and inactive calls. For most assays here, no stated cut-off is given here; in the data, actives have a measured EC50 and inactives only a lower limit.

Legend:
[1] = molecular target: T1, Heat shock factor protein 1 (Mus musculus, UniProt P38532); assay: HSF1 potentiators in luciferase reporter cells, confirmation, cell-based, NIH3T3, luminescence, dose retest (AID 435004); assay type: functional;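 further: stress induced by proteasome inhibitor MG132 added 30 min after compound; luciferase reporter driven by HSF1 response element in NIH3T3 cells; actives raise luminescence as potentiators of the MG132 stress response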
T1 sequence (P38532 whole entry): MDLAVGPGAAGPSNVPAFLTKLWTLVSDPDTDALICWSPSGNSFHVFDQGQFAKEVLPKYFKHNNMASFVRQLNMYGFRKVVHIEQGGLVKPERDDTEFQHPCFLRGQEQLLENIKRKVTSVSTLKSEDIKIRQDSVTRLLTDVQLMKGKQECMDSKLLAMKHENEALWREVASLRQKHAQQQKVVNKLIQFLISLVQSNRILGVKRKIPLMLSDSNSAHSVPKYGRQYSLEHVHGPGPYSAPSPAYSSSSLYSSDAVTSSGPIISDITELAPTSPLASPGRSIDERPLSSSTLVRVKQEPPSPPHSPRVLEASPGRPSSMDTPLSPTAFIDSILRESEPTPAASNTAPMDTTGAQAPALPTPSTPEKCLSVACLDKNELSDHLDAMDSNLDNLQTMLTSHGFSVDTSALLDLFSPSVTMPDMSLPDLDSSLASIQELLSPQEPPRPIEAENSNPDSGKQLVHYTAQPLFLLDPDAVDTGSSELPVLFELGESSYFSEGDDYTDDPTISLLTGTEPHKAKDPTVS

[2] = molecular target: T2, Streptokinase A (Streptococcus pyogenes serotype M1, UniProt P10520); assay: S. pyogenes streptokinase expression inhibitors, potency, dose response, plasminogen activation absorbance, OD405 (AID 1914); assay type: functional, Streptococcus pyogenes M1 GAS;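 further: secreted streptokinase activity via plasminogen activation per viability signal from cell pellet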
T2 sequence (P10520 whole entry): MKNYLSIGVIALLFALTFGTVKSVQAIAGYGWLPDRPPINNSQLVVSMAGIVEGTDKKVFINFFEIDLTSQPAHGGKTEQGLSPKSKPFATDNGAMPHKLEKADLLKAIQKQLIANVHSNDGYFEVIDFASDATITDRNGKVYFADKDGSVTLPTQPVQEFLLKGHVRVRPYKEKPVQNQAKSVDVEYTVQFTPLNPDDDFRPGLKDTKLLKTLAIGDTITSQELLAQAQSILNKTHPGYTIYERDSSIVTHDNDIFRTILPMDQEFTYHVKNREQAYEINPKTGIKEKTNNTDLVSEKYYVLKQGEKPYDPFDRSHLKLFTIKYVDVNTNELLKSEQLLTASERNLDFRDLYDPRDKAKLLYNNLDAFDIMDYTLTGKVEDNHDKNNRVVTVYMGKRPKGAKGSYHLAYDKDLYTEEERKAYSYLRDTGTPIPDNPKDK

[3] = Luminescence Cell-Based Dose Retest to Confirm Inhibitors of Cancer Stem Cells. [Related pubchem assays (depositor defined):AID2717, AID2721]; assay type: functional; details: Homo sapiens
[4] = system: Streptococcus; assay: Group A Streptococcus viability loss, dose response, counter-screen for streptokinase expression inhibitor project, luminescence, BacTiterGlo (AID 1915); assay type: functional, organism-based;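 further: potency for reduction of bacterial viability or growth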
[5] = system: Streptococcus sp. 'group A'; assay: growth inhibition of control SK(-) GAS strain, dose response, counter-screen for streptokinase expression inhibitor project, luminescence, kanamycin, BacTiterGlo, confirmation (AID 1900); assay type: functional, organism-based
[6] = molecular target: T3, Rac GTPase-activating protein 1 (Homo sapiens, UniProt Q9H0H5); assay: MgcRacGAP GTPase-activating activity inhibitors, confirmation, biochemical, ADP Hunter fluorescence, primary and confirmatory (AID 624330); assay type: functional
T3 sequence (Q9H0H5 whole entry): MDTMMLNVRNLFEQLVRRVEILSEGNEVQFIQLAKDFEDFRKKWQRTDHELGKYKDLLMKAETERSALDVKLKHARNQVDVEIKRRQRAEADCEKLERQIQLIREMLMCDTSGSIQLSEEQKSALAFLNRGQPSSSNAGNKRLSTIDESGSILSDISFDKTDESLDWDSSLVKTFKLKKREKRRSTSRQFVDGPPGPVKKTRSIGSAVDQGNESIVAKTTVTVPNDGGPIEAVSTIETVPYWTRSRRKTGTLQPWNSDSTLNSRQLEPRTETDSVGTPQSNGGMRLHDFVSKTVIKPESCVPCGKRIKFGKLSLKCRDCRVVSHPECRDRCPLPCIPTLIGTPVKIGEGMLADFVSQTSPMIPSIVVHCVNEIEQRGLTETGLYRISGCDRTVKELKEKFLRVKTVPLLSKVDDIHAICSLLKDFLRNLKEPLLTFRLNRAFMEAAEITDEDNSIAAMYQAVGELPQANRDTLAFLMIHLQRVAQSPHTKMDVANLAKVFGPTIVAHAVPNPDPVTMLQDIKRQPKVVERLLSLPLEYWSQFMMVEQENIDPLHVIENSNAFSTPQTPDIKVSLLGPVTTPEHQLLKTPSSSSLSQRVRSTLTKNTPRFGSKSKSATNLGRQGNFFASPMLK

[7] = P. falciparum Dd2 growth inhibitors, dose response, SYBR Green, cherry-picked samples (AID 1159567); assay type: functional, cell-based
[8] = inhibitors of intracellular T. cruzi replication, confirmation, NIH3T3 host cells, beta-gal luminescence (AID 2044); assay type: functional, cell-based;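 further: intracellular parasites grown in NIH/3T3 mouse fibroblasts as host cells; luminescent beta-galactosidase reporter signal from transgenic T. cruzi replicating inside host cells; inhibitors lower the luminescence signal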
[9] = cytotoxicity toward NIH3T3 fibroblasts, dose response, counter-screen, cell-based, ATP luminescence, mouse fibroblasts (AID 2010); assay type: functional;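 further: cells exposed to compound for about 90 hours before reading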
[10] = HEp-2 cell cytotoxicity, dose response, cytotoxicity control for RSV inhibitor project, HTS (AID 2410); assay type: functional; details: human respiratory syncytial virus
[11] = molecular target: T4, Cytochrome P450 1A2 (Homo sapiens, UniProt P05177);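 further: PubChem cytochrome P450 panel assay, CYP1A2 panel member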
T4 sequence (P05177 whole entry): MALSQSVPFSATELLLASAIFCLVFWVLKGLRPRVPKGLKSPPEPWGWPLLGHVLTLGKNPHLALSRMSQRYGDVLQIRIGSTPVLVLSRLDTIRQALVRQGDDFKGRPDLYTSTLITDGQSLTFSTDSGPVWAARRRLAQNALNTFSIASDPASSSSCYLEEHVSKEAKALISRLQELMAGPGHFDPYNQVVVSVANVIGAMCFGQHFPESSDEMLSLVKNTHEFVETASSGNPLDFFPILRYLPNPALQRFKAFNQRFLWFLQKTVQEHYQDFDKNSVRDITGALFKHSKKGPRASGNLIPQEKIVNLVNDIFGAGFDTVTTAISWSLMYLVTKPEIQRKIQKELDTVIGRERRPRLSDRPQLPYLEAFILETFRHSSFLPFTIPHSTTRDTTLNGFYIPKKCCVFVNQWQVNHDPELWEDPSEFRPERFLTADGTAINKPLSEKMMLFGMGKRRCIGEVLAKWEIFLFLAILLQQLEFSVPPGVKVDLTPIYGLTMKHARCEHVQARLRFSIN

COc1ccccc1C(=O)NCCCNC(=O)c1ccccn1
EC50 [1]: > 260 µM (inactive)

O=[N+]([O-])c1ccc(-c2csc(Nc3ccccc3)[n+]2Cc2ccccc2)cc1
EC50 [1]: 131 µM (active)

O=C1N=C(Nc2ccc(Cl)cc2)SC1Cc1cccc(Cl)c1Cl (centres undefined)
EC50 [2]: 131 µM (active)
AC50 [3]: 13.2 µM (active)
EC50 [4]: > 150 µM (not active)
EC50 [5]: 3.91 µM (active)

CCOC(=O)c1c(C)[nH]c(C(=O)CN2CCN(CC)CC2)c1C
IC50 [6]: 60.6 µM (active)

Cc1ccc2c(c1)/C(=C/c1ccc(F)cc1)C(=O)N2
EC50 [1]: > 260 µM (inactive)

COc1cccc(CN2[C@@H](CO)[C@H](c3ccccc3)C23CN(C(=O)C2CCOCC2)C3)c1
AC50 [7]: 7.03 µM (active)

COc1cccc(CN2[C@@H](CO)[C@H](c3ccccc3)C23CN(C(=O)C2CCCC2)C3)c1
AC50 [7]: 5.77 µM (active)

Cc1cccc(C)c1NC(=S)N/N=C/c1ccc(OCCC(C)C)cc1
EC50 [2]: 16.9 µM (active)
EC50 [8]: 2.02 µM (active)
EC50 [4]: 21.9 µM (active)
EC50 [9]: > 60 µM (inconclusive)
EC50 [5]: 8.34 µM (active)

COC(=O)/C(C#N)=C/c1c(N2CCCCCC2)nc2c(C)cccn2c1=O
EC50 [1]: > 260 µM (inactive)

CCOC(=O)N1CCC(/N=c2\c(O)c(O)\c2=N/c2cccc(CC)c2)CC1
CC50 [10]: 39.3 µM (active)

CN(C)c1ccc(C=Cc2cnccn2)cc1
IC50 [6]: 38.6 µM (active)

Cc1ccccc1[C@@]1(C)ON(c2ccccc2C(F)(F)F)C1=O
CC50 [10]: 21.9 µM (active)

CCOc1ccc(CNC(=O)c2cccc(NC(=O)C3=C(C)OCCS3)c2)cc1
EC50 [1]: > 260 µM (inactive)

CC(C)NC(=O)N1CCCCN2[C@H](CO)[C@@H](c3ccc(C#C[C@H](C)O)cc3)[C@@H]2C1
AC50 [7]: 19.5 µM (active)

CN(C)CCCn1c(SCc2ccc(Cl)cc2)nnc1-c1ccncc1
IC50 [6]: 121 µM (active)

Cc1cccc(NC(=O)CCc2c(C)nn(-c3ccc(N4CCCCC4)nn3)c2C)c1
EC50 [1]: > 260 µM (inactive)

O=C(CCn1c(=O)oc2ccccc21)Nc1ccccc1
EC50 [1]: > 260 µM (inactive)

Cc1ccc(C)c(-c2cc(C(=O)Nc3sc(C)c(C)c3C(N)=O)c3ccccc3n2)c1
EC50 [2]: 4.64 µM (active)
AC50 [11]: 3.16 µM (inconclusive)
CC50 [10]: 9.97 µM (active)
EC50 [4]: > 150 µM (not active)
EC50 [5]: 2.81 µM (active)

CCCC(O)(c1ccc(Br)cc1)C(CN1CCOCC1)c1ccc(Cl)cc1 (centres undefined)
EC50 [2]: 12.1 µM (active)
EC50 [4]: 72.1 µM (active)
EC50 [5]: 7.94 µM (active)

Cc1ccc(-c2cnc3cc(C)nn3c2)cc1
EC50 [1]: > 260 µM (inactive)

Cc1ccc(-n2nc3c(=O)n(CCCC(=O)NCCc4ccccc4C)nc(C)c3c2C)cc1
CC50 [10]: > 50 µM (active)

CO[C@H]1CN(C)C(=O)c2ccc(NC(=O)c3cccc(Oc4ccccc4)c3)cc2OC[C@@H](C)NC[C@H]1C
AC50 [7]: 7.72 µM (active)

CCC(=O)N1CC2(C1)CN(Cc1cccc(Cl)c1)[C@H](CO)c1c2c2ccc(OC)cc2n1C
AC50 [7]: 10.5 µM (active)

O=C(NNc1cccc(Cl)n1)Nc1ccc(Cl)cc1
EC50 [1]: > 260 µM (inactive)

CCn1cc(C2=NC(c3ccccc3)CO2)c2ccccc21 (centres undefined)
CC50 [10]: 14.8 µM (active)

COc1ccc2c3c([nH]c2c1)[C@@H](CO)N(Cc1ccccc1Cl)CC31CCN(C(=O)C2CC2)CC1
AC50 [7]: 5.82 µM (active)

CC(C)n1nc(C(=O)Nc2nnc(SCc3c(Cl)cccc3Cl)s2)c2ccccc2c1=O
EC50 [2]: > 150 µM (not active)
EC50 [4]: 116 µM (active)
EC50 [5]: 2.09 µM (active)

Cc1cccc(NC(=O)c2[nH]cnc2C(=O)N[C@@H](Cc2ccccc2)C(=O)OCc2ccccc2)c1
CC50 [10]: 46.3 µM (active)

O=C(Nc1ccccn1)c1ccc2ccccc2c1O
IC50 [6]: 73 µM (active)

OC[C@H]1[C@@H](c2ccc(-c3cccnc3)cc2)[C@H]2CN(CC3CC3)CCCCN21
AC50 [7]: 6.52 µM (active)

c1ccc(-c2cc(-c3ccc(N4CCOCC4)cc3)nc3ccccc23)cc1
CC50 [10]: > 50 µM (active)

CCOc1cc(CNc2ccc3c(c2)OCCO3)cc(Br)c1OCC(N)=O
IC50 [6]: 99.3 µM (active)

O=C(Cn1cc(C(F)(F)F)ccc1=O)N/N=C/c1ccc(O)cc1
IC50 [6]: 95.1 µM (active)

CCC(C)N1C(=O)/C(=C/NNc2ccccc2)C(=O)NC1=S (centres undefined)
EC50 [2]: > 150 µM (not active)
AC50 [3]: 2.24 µM (active)
EC50 [4]: > 150 µM (not active)
EC50 [5]: > 150 µM (not active)

COc1cc(/C=C/C(C)=NNc2ccccc2)ccc1O
IC50 [6]: 51.9 µM (active)

CC(c1ccc(F)cc1)n1c(S)nnc1Cn1ncc2ccccc2c1=O (centres undefined)
EC50 [1]: > 260 µM (inactive)

CNC[C@H]1Oc2ncc(-c3ccc(OC)cc3)cc2C(=O)N([C@H](C)CO)C[C@H]1C
AC50 [7]: 7.75 µM (active)

O=C(c1ccc(N2CCN(C3CC(=O)N(Cc4cccs4)C3=O)CC2)cc1)c1cccnc1 (centres undefined)
CC50 [10]: 24.4 µM (active)

Cc1ccc(OCC(=O)N2CCN(CC3CC4C=CC3C4)CC2)cc1 (centres undefined)
IC50 [6]: 293 µM (active)

Cc1ccccc1C(=O)Nc1ccc(N2CCCC2)cc1
IC50 [6]: 79.7 µM (active)

CCC(=O)N1CCC2(CC1)CN(Cc1ccc(Cl)cc1)[C@H](CO)c1[nH]c3cc(OC)ccc3c12
AC50 [7]: 3.07 µM (active)
